These are literature values, as cited in patent US7037910B2, “Azabicyclic heterocycles as cannabinoid receptor modulators” (Bristol-Myers Squibb, priority 2003, dated 2006).

Like-named read-outs stand apart in the source and are kept apart here.

The conditions of data set [1]: chronic administration for two weeks.
The conditions of data set [2]: human subjects, 16 week trial period.

Turning to `Cc1c(C(=O)NN2CCCCC2)nn(-c2ccc(Cl)cc2Cl)c1-c1ccc(I)cc1` [AM-251], the body weight result in data set [1] is on record as “substantial body weight reduction”.
`Cc1c(C(=O)NN2CCCCC2)nn(-c2ccc(Cl)cc2Cl)c1-c1ccc(Cl)cc1` [SR-141716]: in data set [2], the body weight entry is reported as “dose-dependently reduced body weight”.
